Reference: article PMC2714906 (Endocrine, 2009)
Entries after “also recorded” stand apart in the source; their conditions may differ.

Key:
[1] = cited from earlier work; for Effect on central regulation of feeding behavior, in words: peripheral administration, ref [15], [45]
[2] = system: IV γ-MSH cardiovascular response; test: BIBO3304 effect on IV γ-MSH and γ-MSH6–12 cardiovascular responses; format: in vivo, rat (Sprague Dawley)
NPFF receptors = conditions: ref [16]–[19]; cited from earlier work
[3] = system: IV NPY cardiovascular response; test: BIBO3304 effect on IV NPY, NPY analog and ANG II cardiovascular responses; format: in vivo, rat (Sprague Dawley); conditions: for PRE vs POST BIBO3304 pressor response, in words: IV peptide
other Y receptors = conditions: cited from earlier work; for Effects at other Y receptors, in words: ref [15]; for Binding to other Y receptors, in words: ref [23]
[4] = IV peptide MAP and HR cardiovascular responses in urethane-anesthetized rats; format: in vivo, rat (Sprague Dawley); conditions: for Increase in MAP: IV, compare Fig. 5a with Fig. 4b; for Increase in MAP / Cardiovascular response (MAP and HR), in words: rats; for Cardiovascular response (MAP and HR), in words: IV γ-MSH 15 nmol or NPY 5 nmol
[5] = cited from earlier work
rat Y1 receptor = test: Rat Y1 receptor binding, competition with 125I-pPYY; conditions: competition with iodinated PYY; CHO cells expressing rat Y1 receptor
Y1 receptor = format: cell-based; conditions: 50 nM, HEK tsA201 cells expressing Y1 receptor and N-type VDCC; for Reduction of IBa (N-type VDCC barium current): whole-cell, 22°C, pH 7.20
[6] = system: sensory neuron-specific receptor (SNSR1); conditions: ref [65], [66]; cited from earlier work
[7] = ref [8], cited from earlier work
[8] = system: sensory neuron-specific receptor (SNSR1); conditions: ref [65], [66]; cited from earlier work; remark: listed apart in the source
[9] = central BIBO3304, summary in Discussion
[10] = ICV BIBO3304, NPY 5 nmol IV, PRE vs POST, n = 7
[11] = NPY 5 nmol IV, change from baseline, mean ± standard error

Compound: NC(=O)NCc1ccc(CNC(=O)[C@@H](CCCN=C(N)N)NC(=O)C(c2ccccc2)c2ccccc2)cc1 [BIBO3304]
- Effect on central regulation of feeding behavior, in words [1]: affects central regulation of feeding behavior
- Attenuation of total γ-MSH pressor response (MAP curve area, height × width) ([2]; ICV BIBO3304, IV γ-MSH, PRE vs POST, n = 7): > 60%
- Attenuation of MAP response of γ-MSH or γ-MSH6–12 (either peptide) ([2]; ICV BIBO3304, several IV doses of γ-MSH and γ-MSH6–12, subsequent study): > 50%
- Attenuation of pressor responses of γ-MSH and γ-MSH6–12, in words ([2]; IV or ICV BIBO3304, peptide IV): significantly attenuated the pressor responses of γ-MSH and the γ-MSH analog
- Reduction in total γ-MSH pressor response ([2]; central BIBO3304, IV γ-MSH, summary in Discussion): 75%
- Inhibition of HR response to several IV γ-MSH doses [2, 9]: ~50%
- Inhibition of peak MAP response to several IV γ-MSH doses [2, 9]: ~50%
- Change in baseline cardiovascular parameters ([2]; central or peripheral BIBO3304 alone, n = 7): no significant changes in any baseline cardiovascular parameters
- Binding at NPFF receptors, in words (NPFF receptors): nanomolar-binding efficacy at NPFF receptors
- Area under the MAP response curve, effect of BIBO3304, in words ([3]; ICV BIBO3304, IV NPY agonists 5 nmol): Only the area under the NPY MAP response curve is reduced by drug treatment
- Effect on IV NPY cardiovascular response, in words ([3]; ICV BIBO3304, NPY 5 nmol IV): significant decrease in the IV NPY cardiovascular response; also recorded: blood pressure responses of NPY are significantly reduced
- Decrease in IV NPY-induced MAP response [3, 10]: > 40%
- Decrease in total NPY pressor response (MAP curve area) [3, 10]: > 70%
- Effect on γ-MSH6–12 and NPY-CVa MAP responses, in words ([3]; ICV BIBO3304, two graded doses of either peptide IV (Fig. 5a)): produced significant MAP reductions for both doses of either peptide
- Effect on (D-Arg25) NPY MAP / total pressor response, in words ([3]; ICV or IV BIBO3304, (D-Arg25) NPY IV): did not change the MAP response of D-Arg25 NPY; also recorded: did not significantly affect the MAP response or total pressor response of a Y1 receptor agonist (D-Arg25) NPY; also recorded: no significant effect on D-Arg25 NPY
- Effect on γ-MSH6–12 and NPY-CVa MAP responses, in words (IV BIBO3304) ([3]; IV BIBO3304, two graded doses IV (Fig. 5b)): significant reductions in MAP for both doses of γ-MSH6–12 and NPY-CVa
- Effect on IV NPY-CVa cardiovascular activity, in words ([3]; central or peripheral BIBO3304, NPY-CVa IV): IV NPY-CVa cardiovascular activity was sensitive to central or peripheral BIBO3304 administration
- Reduction of IV NPY-CVa pressor response ([3]; central or systemic BIBO3304, NPY-CVa 5 or 20 nM doses (so in the source) IV): up to 55%
- Effects at other Y receptors, in words (other Y receptors): not reported to have significant effects at other Y receptors
- Binding to other Y receptors, in words (other Y receptors): none of these receptors shows significant binding of BIBO3304

Compound: NC(N)=NCCC[C@@H](NC(=O)C(c1ccccc1)c1ccccc1)C(=O)NCc1ccc(O)cc1 [BIBP3226]
- Effect on central regulation of feeding behavior, in words [1]: affects central regulation of feeding behavior
- Binding at NPFF receptors, in words (NPFF receptors): nanomolar-binding efficacy at NPFF receptors
- Effects at other Y receptors, in words (other Y receptors): not reported to have significant effects at other Y receptors

Compound: (D-Arg25) NPY
- PRE vs POST BIBO3304 pressor response, in words ([3]; ICV or IV BIBO3304, listed as (D-Arg^25) NPY): not significantly different
- PRE vs POST BIBO3304 pressor response, in words ([3]; ICV or IV BIBO3304, listed as D-Arg25 NPY): lack of a significant difference in the PRE and POST cardiovascular responses

Compound: Des-AA10–17-cyclo-7/21[Cys7,21, Pro34] NPY [NPY-CVa]
- Increase in MAP ([4]; mean ± standard error): 26 ± 3 mmHg
- Orexigenic activity, in words ([1]; ref [23], [26]): without orexigenic activity; also recorded: lacks Y1-like orexigenic activity
- Pressor activity of NPY-CVa, in words ([5]; ref [26]): significant pressor activity
- Binding to other Y receptors, in words (other Y receptors): significant binding to other Y receptors

Compound: FMRFamide
- Competition for rat Y1 receptor binding, in words (rat Y1 receptor): failed to bind to these receptors; also recorded: Neither γ-MSH nor FMRFamide (a model RFamide peptide) competed with iodinated PYY for binding to the rat Y1 receptors

Compound: angiotensin II [ANG II]
- Peak MAP response, POST ICV BIBO3304 ([3]; IV ANG II 5 nmol, POST, mean ± standard error): 54 ± 2 mmHg
- Peak MAP response, PRE ICV BIBO3304 ([3]; IV ANG II 5 nmol, PRE, mean ± standard error): 66 ± 6 mmHg
- PRE vs POST BIBO3304 pressor response, in words ([3]; ICV or IV BIBO3304): not significantly different at pre and post central BIBO3304 administration
- PRE vs POST BIBO3304 pressor response, in words ([3]; ICV or IV BIBO3304, listed as AII): not significantly different

Compound: gamma-melanocyte stimulating hormone [γ-MSH]
- Effect on N-type VDCC / IBa, in words (Y1 receptor): does not affect Y1 receptor agonist binding capacity or signaling; also recorded: did not bind to or allosterically regulate the Y1 receptor; also recorded: neither γ-MSH nor γ-MSH6–12 affected VDCC activity; also recorded: did not produce a significant inhibition of IBa relative to control
- Reduction of IBa (N-type VDCC barium current) (Y1 receptor): 3–9%
- Cardiovascular response (MAP and HR), in words [4]: produced both pressor and cardioaccelerator effects, with no evidence of a baroreceptor-mediated bradycardia; also recorded: produces a marked pressor and tachycardia response
- SNSR1 activation [6]: ~40 nM
- Rise in MAP ([7]; mouse models): 38 mmHg
- Pressor effect in MC3-R and MC4-R knockout mice, in words ([7]; peripheral administration): these effects can be elicited following peripheral administration of γ-MSH in the MC3-R and MC4-R knockout mice
- Competition for rat Y1 receptor binding, in words (rat Y1 receptor): failed to compete with iodinated PYY for binding to the rat Y1 receptor; also recorded: Neither γ-MSH nor FMRFamide (a model RFamide peptide) competed with iodinated PYY for binding to the rat Y1 receptors
- Pressor response after forebrain CVO lesions, in words ([5]; IV, forebrain CVO lesions, ref [42]): attenuation of the IV γ-MSH cardiovascular response
- Rightward shift of pressor dose–response curve ([5]; carotid versus femoral artery administration, ref [31]): 10 fold
- Mechanism of MAP and HR effects / baroreceptor reflex, in words ([5]; ref [9]–[11], [33]): total inhibition of the baroreceptor reflex; also recorded: MAP and HR effects are due to an increase in preganglionic sympathetic drive, with no contribution of adrenal medullary catecholamine release

Compound: neuropeptide Y [NPY]
- Effect on N-type VDCC / IBa, in words (Y1 receptor): significant decreases in N-type VDCC activity; also recorded: significantly different from the effects of γ-MSH or γ-MSH6–12
- Reduction of IBa (N-type VDCC barium current) (Y1 receptor): ~50%
- Duration of pressor response, in words ([4]; IV NPY 5 nmol compared to γ-MSH, P <0.05, n = 7): lasted significantly longer than that of γ-MSH for a relatively similar change in peak MAP
- Cardiovascular response (MAP and HR), in words [4]: during the mid-point of the pressor response the bradycardia reversed to a cardioaccelerator response; also recorded: produces prolonged pressor and HR responses
- Increase in MAP ([4]; mean ± standard error): 41.9 ± 4 mmHg
- Peak bradycardia response [4, 11]: −53 ± 18 BPM
- Peak tachycardia response [4, 11]: 49 ± 14 BPM
- Baseline HR ([4]; baseline of the NPY 5 nmol IV group, mean ± standard error): 360 ± 11 BPM
- SNSR1 binding, in words [8]: nanomolar NPY binding
